What was measured:
[1] = molecular target: T1, Dihydroorotate dehydrogenase (quinone), mitochondrial (Homo sapiens, UniProt Q02127); test: Inhibition of N-terminally truncated human DHODH (Met30 to Arg396 residues) expressed in Escherichia coli BL21 (DE3) using dihydroorotate as substrate preincubated for 5 mins followed by substrate addition measured every 30 secs for 6 mins by DCIP-based spectrophotometric assay
[2] = molecular target: T1, Dihydroorotate dehydrogenase (quinone), mitochondrial; test: Binding affinity to N-terminally truncated human DHODH (Met30 to Arg396 residues) expressed in Escherichia coli BL21 (DE3) assessed as dissociation rate constant by surface plasmon resonance assay
[3] = molecular target: T1, Dihydroorotate dehydrogenase (quinone), mitochondrial; test: Binding affinity to N-terminally truncated human DHODH (Met30 to Arg396 residues) expressed in Escherichia coli BL21 (DE3) by surface plasmon resonance assay
[4] = molecular target: T1, Dihydroorotate dehydrogenase (quinone), mitochondrial
Description: Binding affinity to N-terminally truncated human DHODH (Met30 to Arg396 residues) expressed in Escherichia coli BL21 (DE3) assessed as change in melting temperature at 100 uM by fluorescence-based thermal shift assay

[5] = molecular target: T1, Dihydroorotate dehydrogenase (quinone), mitochondrial; remark: listed apart in the source
Description: Binding affinity to N-terminally truncated human DHODH (Met30 to Arg396 residues) expressed in Escherichia coli BL21 (DE3) assessed as association rate constant by surface plasmon resonance assay

T1 sequence (Q02127 whole entry, the tested form may be a part): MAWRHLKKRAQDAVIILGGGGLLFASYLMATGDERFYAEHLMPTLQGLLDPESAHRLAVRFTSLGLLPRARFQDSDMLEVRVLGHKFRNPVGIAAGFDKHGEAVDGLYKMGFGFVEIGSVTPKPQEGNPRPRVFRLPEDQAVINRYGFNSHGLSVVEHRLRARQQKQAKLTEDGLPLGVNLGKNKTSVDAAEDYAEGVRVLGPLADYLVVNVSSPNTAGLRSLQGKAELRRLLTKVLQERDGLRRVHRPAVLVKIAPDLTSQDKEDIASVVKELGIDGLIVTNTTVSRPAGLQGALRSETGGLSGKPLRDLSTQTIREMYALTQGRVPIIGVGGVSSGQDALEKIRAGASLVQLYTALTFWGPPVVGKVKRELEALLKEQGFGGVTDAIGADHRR

Row | IC50 [1] [nM] | Structure (SMILES) | also measured
1 | 666 | O=C(O)c1cc(-c2ccc(Cl)cc2Cl)nc2ccc(Br)cc12 | –
2 | 1310 | CCCCOc1cccc(-c2cc(C(=O)O)c3ccccc3n2)c1 | –
3 | 437 | CCCCc1ccc(-c2cc(C(=O)O)c3ccccc3n2)cc1 | –

Continued, compound first:

Row | Structure (SMILES) | IC50 [1] [nM] | also measured
4 | Cc1c(-c2ccc(C(C)C)cc2)nc2ccccc2c1C(=O)O | 1570 | –
5 | O=C(O)c1cc(-c2ccc3c(c2)OCO3)nc2ccccc12 | 5180 | –
6 | COC(=O)c1cc(-c2ccc(OC)c(OC)c2)nc2ccccc12 | 3250 | –
7 | CC(C)c1ccc(-c2cc(C(=O)O)c3cc(Br)ccc3n2)cc1 | 136 | –
8 | CCC(C)c1ccc(-c2nc3ccc(Br)cc3c(C(=O)O)c2C)cc1 (stereo not drawn) | 9.7 | koff [2]: 7.58 ×10⁻³ /s; Kd [3]: 12 nM; ΔTm [4]: 16.6 °C; Ka [5]: 5.99 ×10⁵ /M/s
9 | O=C(O)c1cc(-c2ccc(Cl)c(Cl)c2)nc2ccc(Br)cc12 | 57.1 | –
